Data on 9 molecules can be found in PubChem BioAssay (NCI).

Test systems include RPMI-8226 leukemia; SK-MEL-5 melanoma; OVCAR-5 ovarian; MDA-MB-435; HS 578T breast; HOP-62 NSCLC; HCT-15 colon; IGROV1 ovarian; SW-620 colon; SNB-19 CNS.
Holding throughout (assay): growth of human tumour cells (NCI), 48 h

Several values for one entry are separate records, joined by “and”; a condition that tells them apart may be missing. Equal entries are not always repeated.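 1) Cells in 96-well plates. 2) Compound, 48 h, 5 concentrations. 3) Linear interpolation between surrounding doses. 4) Unreached endpoint = highest concentration. GI50 is the concentration that inhibits growth by half. Definition used: TGI = concentration required for complete inhibition of growth.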

As for `CCSCC1CC(O)(c2ccccc2)C(c2ccccc2)C(c2ccc(Cl)cc2)O1` (centres undefined), the GI50 in the assay on RPMI-8226 leukemia was 1.56 µM; in the assay with SK-MEL-5 melanoma, 1.64 µM; with OVCAR-5 ovarian, 1.82 µM; in the assay with MDA-MB-435, 1.74 µM; in the assay on HS 578T breast it was 2.5 µM; in the assay with HOP-62 NSCLC it was 1.85 µM. For the same molecule, the GI50 with HCT-15 colon was 1.69 µM; in the assay on IGROV1 ovarian, 2.01 µM; in the assay on SW-620 colon, 1.82 µM. The TGI was found to be 4.66 µM with RPMI-8226 leukemia; 3.01 µM in the assay with SK-MEL-5 melanoma; 3.54 µM in the assay on OVCAR-5 ovarian; 3.84 µM in the assay with MDA-MB-435; 8.87 µM with HS 578T breast; 3.6 µM with HOP-62 NSCLC. The TGI amounted to 4.5 µM with HCT-15 colon, 4.88 µM with IGROV1 ovarian and 4.39 µM in the assay with SW-620 colon.

For `CC[C@]1(O)CC(OC2CC(N(C)C)C(O)C(C)O2)c2c(cc3c(c2O)C(=O)c2c(O)cccc2C3=O)[C@@H]1C(=O)OC` (some centres undefined), the TGI was 0.941 µM with SK-MEL-5 melanoma; 13.9 µM in the assay with OVCAR-5 ovarian; 1.44 µM in the assay on MDA-MB-435; 4.21 µM in the assay with HS 578T breast; 2.14 µM with HOP-62 NSCLC; 7.03 µM with SNB-19 CNS. Also, the TGI was 2.75 µM in the assay on HCT-15 colon, 3.21 µM in the assay on IGROV1 ovarian and 3.95 µM with SW-620 colon.

For `C[C@@H]1COCCN1c1cc(C2([S@](C)(=N)=O)CC2)nc(-c2ccnc3[nH]ccc23)n1`, the GI50 with RPMI-8226 leukemia was 3.96 µM and 6.76 µM; with SK-MEL-5 melanoma it was 3.6 µM and 3.87 µM; with OVCAR-5 ovarian, 5.03 µM and 6.98 µM; in the assay with MDA-MB-435, 3.74 µM and 4.29 µM; in the assay on HS 578T breast, 2.93 µM and 3.72 µM; with HOP-62 NSCLC, 2.86 µM and 1.75 µM. Moreover, the GI50 in the assay with SNB-19 CNS is 3.96 µM and 6.33 µM; with HCT-15 colon, 4.34 µM and 4.51 µM; in the assay with IGROV1 ovarian it was 4.24 µM and 2.23 µM; in the assay on SW-620 colon, 4.79 µM and > 10 µM. Moreover, the TGI with RPMI-8226 leukemia is 47.5 µM and > 10 µM; with SK-MEL-5 melanoma it was 15.7 µM and > 10 µM; in the assay with OVCAR-5 ovarian, 99.8 µM and > 10 µM; in the assay with MDA-MB-435, 35.7 µM and > 10 µM; with HS 578T breast, 29.6 µM and > 10 µM; in the assay on HOP-62 NSCLC, 52.1 µM and > 10 µM. The TGI was over 100 µM with SNB-19 CNS; over 100 µM with HCT-15 colon; 68.6 µM and > 10 µM with IGROV1 ovarian; over 100 µM in the assay with SW-620 colon.

On to `Cc1c(N2CCCC2)cc2c(c1NC(=O)c1ccccc1Cl)C(C)(C)CC2(C)C`, for which the TGI stood at 34.2 µM with RPMI-8226 leukemia; 33.7 µM in the assay on SK-MEL-5 melanoma; 32.2 µM in the assay with OVCAR-5 ovarian; 27.9 µM in the assay on MDA-MB-435; 38.4 µM in the assay with HS 578T breast; 28.4 µM in the assay on HOP-62 NSCLC. The TGI came to 29.5 µM in the assay with SNB-19 CNS, 28.3 µM with HCT-15 colon, 28 µM in the assay on IGROV1 ovarian and 33.1 µM with SW-620 colon.

For the molecule `CC12CCC3C(CCC4Cc5[nH]c6ccccc6c5CC43C)C1CCC2O` (centres undefined), the GI50 in the assay with RPMI-8226 leukemia is 1.13 µM; in the assay with SK-MEL-5 melanoma, 0.75 µM; in the assay on OVCAR-5 ovarian it was over 100 µM; with MDA-MB-435, 0.241 µM; in the assay on HS 578T breast it was 0.362 µM; in the assay with HOP-62 NSCLC it was 0.348 µM. Further, the GI50 in the assay on SNB-19 CNS is 2.89 µM; in the assay on HCT-15 colon, 0.695 µM; in the assay with IGROV1 ovarian it was 0.768 µM; in the assay on SW-620 colon, 0.497 µM. Besides, the TGI is 4.52 µM in the assay on RPMI-8226 leukemia; over 100 µM in the assay on SK-MEL-5 melanoma; over 100 µM in the assay on OVCAR-5 ovarian; 0.717 µM with MDA-MB-435; 1.88 µM in the assay on HS 578T breast; 2.57 µM with HOP-62 NSCLC. The TGI in the assay on SNB-19 CNS, in the assay on HCT-15 colon, with IGROV1 ovarian and in the assay on SW-620 colon was over 100 µM throughout.

As for `Cc1ccc(S(=O)(=O)OC2CCN(C)CC2)cc1`, the TGI with RPMI-8226 leukemia is 49.8 µM; with SK-MEL-5 melanoma it was 44.6 µM; with OVCAR-5 ovarian it was over 100 µM; with MDA-MB-435 it was over 100 µM; in the assay on HS 578T breast, over 100 µM; with HOP-62 NSCLC, over 100 µM. The TGI in the assay on SNB-19 CNS was over 100 µM; in the assay with HCT-15 colon it was over 100 µM; with IGROV1 ovarian it was over 100 µM; in the assay on SW-620 colon, 42 µM.

Regarding `CC(C)[C@]12O[C@H]1[C@@H]1O[C@]13[C@]1(O[C@H]1C[C@H]1C4=C(CC[C@@]13C)C(=O)OC4)[C@@H]2O`, the GI50 was 0.0036 µM and 0.011 µM in the assay on RPMI-8226 leukemia; 0.0131 µM in the assay with SK-MEL-5 melanoma; 0.0325 µM and 0.0282 µM with OVCAR-5 ovarian; 0.0122 µM in the assay on MDA-MB-435; 0.0248 µM in the assay on HOP-62 NSCLC; 0.0627 µM in the assay on SNB-19 CNS. Also, the GI50 in the assay on HCT-15 colon was 0.0122 µM; with IGROV1 ovarian it was 0.0257 µM; in the assay with SW-620 colon it was under 0.01 µM. The TGI was 0.0265 µM and 0.0915 µM in the assay on RPMI-8226 leukemia; 0.0213 µM and 0.0265 µM in the assay on SK-MEL-5 melanoma; over 100 µM in the assay with OVCAR-5 ovarian; 0.0214 µM and 0.0296 µM with MDA-MB-435; 0.0554 µM and 0.0718 µM with HS 578T breast; over 100 µM in the assay with SNB-19 CNS. Moreover, the TGI is over 2.93 µM with HCT-15 colon and over 100 µM with IGROV1 ovarian.

As for `Clc1ccc(CSC(Cn2ccnc2)c2ccc(Cl)cc2Cl)cc1` (centres undefined), the GI50 in the assay on RPMI-8226 leukemia was 1.38 µM; in the assay with SK-MEL-5 melanoma, 1.61 µM; with OVCAR-5 ovarian, 2.13 µM; in the assay on MDA-MB-435, 1.71 µM; in the assay on HS 578T breast, 1.97 µM; with HOP-62 NSCLC it was 1.41 µM. Also, the GI50 is 1.52 µM in the assay on SNB-19 CNS, 1.68 µM in the assay with HCT-15 colon, 1.74 µM in the assay on IGROV1 ovarian and 1.59 µM with SW-620 colon. The TGI in the assay with RPMI-8226 leukemia was determined as 4.49 µM; in the assay on SK-MEL-5 melanoma it was 2.96 µM; in the assay with OVCAR-5 ovarian it was 6.84 µM; in the assay on MDA-MB-435, 3.33 µM; with HS 578T breast, 5.02 µM; in the assay on HOP-62 NSCLC, 2.73 µM. The TGI with SNB-19 CNS was 2.89 µM; in the assay with HCT-15 colon it was 3.76 µM; with IGROV1 ovarian, 4.55 µM; in the assay on SW-620 colon, 3.1 µM.

Regarding `C=CC[n+]1c(/C=C/C=C2\N(C)c3ccccc3C2(C)C)sc2ccc(OC)cc21`, the GI50 is 0.0692 µM with RPMI-8226 leukemia; 0.0615 µM in the assay on SK-MEL-5 melanoma; 0.504 µM with OVCAR-5 ovarian; 0.256 µM with MDA-MB-435; 0.465 µM in the assay on HS 578T breast; 0.291 µM with HOP-62 NSCLC. In addition, the GI50 in the assay on SNB-19 CNS is 0.289 µM; with HCT-15 colon, 2.82 µM; in the assay on IGROV1 ovarian it was 0.521 µM; in the assay with SW-620 colon it was 0.34 µM. The TGI amounted to 0.705 µM with RPMI-8226 leukemia; 0.239 µM in the assay with SK-MEL-5 melanoma; 14.9 µM with OVCAR-5 ovarian; 10.6 µM with MDA-MB-435; 25.4 µM in the assay with HS 578T breast; 11.9 µM in the assay on HOP-62 NSCLC. Further, the TGI in the assay with SNB-19 CNS was 14.4 µM; with HCT-15 colon, 16.4 µM; in the assay on IGROV1 ovarian, 21.6 µM; with SW-620 colon, 14.3 µM.
